Assay [1] addresses T1, PSMA (Homo sapiens, UniProt Q04609).
T1 construct: endogenous in cells; host or cells: LNCaP cell lysate
In words: fluorescence-based PSMA inhibition assay (NAAG hydrolysis, Amplex Red). Format: biochemical. Particulars: for Ki: LNCaP cell lysates, 4 μM NAAG, Cheng-Prusoff conversion; for increase in binding affinity (Ki) compared to monovalent 1: relative to compound 1. As for the experimental part: PSMA inhibition constant (Ki) values for 1 - 3 were determined using a fluorescence-based PSMA inhibition assay. […] Compound 6 was radiolabeled with ^99mTc and its biological properties were tested in vivo [34].
The PSMA inhibitory activities of 1 - 3 and [^113/115In]3 were determined using a fluorescence-based assay according to a previously reported procedure. Briefly, lysates of LNCaP cell extracts (25 μL) were incubated with the inhibitor (12.5 μL) in the presence of 4 μM NAAG (12.5 μL) for 120 min. The amount of glutamate released upon hydrolysis of NAAG was measured by incubating with a working solution (50 μL) of the Amplex Red Glutamic Acid Kit (Life Technologies, Grand Island, NY) for 60 min. Fluorescence was measured with a VICTOR3V multilabel plate reader (Perkin Elmer Inc., Waltham, MA) with excitation at 530 nm and emission at 560 nm. […] Assays were performed in triplicate. Enzyme inhibitory constants (Ki values) were generated using the Cheng-Prusoff conversion. Data analysis was performed using GraphPad Prism version 4.00 for Windows (GraphPad Software, San Diego, CA).

In assay [2] the target is T1, PSMA. Also noted: method as in earlier work. Particulars: separate previous experiment; cited from earlier work.

Values joined by “and” are separate entries in the source; they are usually repeats but may differ in a detail not shown here. Equal entries are not always repeated. Where two headings read alike, the source gives them in different places.

T1 sequence (Q04609 whole entry): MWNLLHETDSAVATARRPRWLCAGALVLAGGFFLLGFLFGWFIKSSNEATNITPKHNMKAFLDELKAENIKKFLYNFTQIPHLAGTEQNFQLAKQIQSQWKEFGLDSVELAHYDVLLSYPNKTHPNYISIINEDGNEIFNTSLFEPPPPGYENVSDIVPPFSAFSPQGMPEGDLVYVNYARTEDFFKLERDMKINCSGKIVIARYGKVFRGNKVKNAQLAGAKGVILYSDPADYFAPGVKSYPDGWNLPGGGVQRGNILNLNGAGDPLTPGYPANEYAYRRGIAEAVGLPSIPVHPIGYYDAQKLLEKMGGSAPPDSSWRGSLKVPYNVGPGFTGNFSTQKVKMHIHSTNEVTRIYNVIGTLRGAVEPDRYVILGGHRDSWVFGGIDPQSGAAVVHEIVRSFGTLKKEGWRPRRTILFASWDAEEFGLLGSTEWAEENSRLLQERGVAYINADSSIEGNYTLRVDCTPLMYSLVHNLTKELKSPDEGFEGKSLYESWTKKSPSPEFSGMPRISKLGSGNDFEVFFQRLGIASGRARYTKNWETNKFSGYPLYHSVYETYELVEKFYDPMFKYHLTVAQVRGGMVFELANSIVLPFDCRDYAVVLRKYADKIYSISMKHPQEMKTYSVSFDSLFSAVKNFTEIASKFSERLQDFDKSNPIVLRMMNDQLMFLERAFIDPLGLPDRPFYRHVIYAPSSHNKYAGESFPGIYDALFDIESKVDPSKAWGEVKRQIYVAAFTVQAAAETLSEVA

Consider `[N-]=[N+]=NCCCCC(NC(=O)CCCCCCC(=O)NCCCC[C@H](NC(=O)N[C@@H](CCC(=O)O)C(=O)O)C(=O)O)C(=O)O` (stereo partly drawn) [Compound 1, (3S,7S)-26-Azido-5,13,20-trioxo-4,6,12,21-tetraazahexacosane-1,3,7,22-tetracarboxylic acid], for which, in assay [1], the Ki (commonly a measure of affinity in units of concentration, obtained from inhibition or displacement) is 0.9 nM and 0.91 nM.
As for `NCCCCC(NC(=O)C(CCCCNC(=O)c1cn(CCCCC(NC(=O)CCCCCCC(=O)NCCCC[C@H](NC(=O)N[C@@H](CCC(=O)O)C(=O)O)C(=O)O)C(=O)O)nn1)NC(=O)c1cn(CCCCC(NC(=O)CCCCCCC(=O)NCCCC[C@H](NC(=O)N[C@@H](CCC(=O)O)C(=O)O)C(=O)O)C(=O)O)nn1)C(=O)O` (stereo partly drawn) [Compound 2], in assay [1], the Ki was 0.1 nM; the “increase in binding affinity (Ki) compared to monovalent 1” value is 5 fold and ~ 5 fold.
Turning to `O=C(O)CC[C@H](NC(=O)N[C@@H](CCCCNC(=O)CCCCCCC(=O)NC(CCCCn1cc(C(=O)NCCCCC(NC(=O)c2cn(CCCCC(NC(=O)CCCCCCC(=O)NCCCC[C@H](NC(=O)N[C@@H](CCC(=O)O)C(=O)O)C(=O)O)C(=O)O)nn2)C(=O)NC(CCCCNC(=O)CN2CCN(CC(=O)O)CCN(CC(=O)O)CCN(CC(=O)O)CC2)C(=O)O)nn1)C(=O)O)C(=O)O)C(=O)O` (stereo partly drawn) [Compound 3], in assay [1], the affinity corresponds to a Ki of 0.08 nM; the “increase in binding affinity (Ki) compared to monovalent 1” value is 11 fold and ~ 11 fold.
Regarding `NC(Cc1cn(CCCCC(NC(=O)CCCCCCC(=O)NCCCC[C@H](NC(=O)N[C@@H](CCC(=O)O)C(=O)O)C(=O)O)C(=O)O)nn1)C(=O)O` (stereo partly drawn) [Compound 6], in assay [2], the Ki was 0.92 nM.

Values taken from PMC3282081, “A Modular Strategy to Prepare Multivalent Inhibitors of Prostate-Specific Membrane Antigen (PSMA)” (Oncotarget, 2011).
